Test results as given in patent US12447170B2, “Use of maribavir in treatment regimens” (priority 2021, dated 2025).
pIC50: −log10 of the molar value. Read-outs that look alike come from different tables or passages of the source.

Legend:
CYP3A4 mRNA = experiment: CYP induction (mRNA, qPCR) in fresh human hepatocytes; type: in vitro ADME
Method: Fresh human hepatocytes were treated with culture medium with maribavir concentrations of 36 μM, 144 μM, and 480 μM.
Positive controls were 50 μM omeprazole (CYP1A2), 1 mM phenobarbital (CYP2B6), and 50 μM rifampicin (CYP3A).
Incubation was conducted at 37° C. for 72 hours, with daily replacement of medium with compound. Total RNA was isolated, and cDNA was synthesized from up to 1 μg of total isolated RNA. Analysis of CYP expression was performed using qPCR with CYP-specific probes.
Half maximal effective concentration (EC50) and maximum effect (Emax) values for CYP3A4 mRNA induction were further determined by a concentration-response curve in three donors with maribavir at a concentration between 0-100 μM.

P-gp = target: T1, P-gp (Homo sapiens, UniProt P08183); experiment: Inhibition of P-gp efflux of digoxin in cultured Caco-2 cells; type: in vitro ADME
T1 construct: P-gp efflux of digoxin (as determined by the corrected efflux ratio) in cultured Caco-2 cells; endogenous in cells; host or cells: Caco-2 cells
T1 sequence (P08183 whole entry): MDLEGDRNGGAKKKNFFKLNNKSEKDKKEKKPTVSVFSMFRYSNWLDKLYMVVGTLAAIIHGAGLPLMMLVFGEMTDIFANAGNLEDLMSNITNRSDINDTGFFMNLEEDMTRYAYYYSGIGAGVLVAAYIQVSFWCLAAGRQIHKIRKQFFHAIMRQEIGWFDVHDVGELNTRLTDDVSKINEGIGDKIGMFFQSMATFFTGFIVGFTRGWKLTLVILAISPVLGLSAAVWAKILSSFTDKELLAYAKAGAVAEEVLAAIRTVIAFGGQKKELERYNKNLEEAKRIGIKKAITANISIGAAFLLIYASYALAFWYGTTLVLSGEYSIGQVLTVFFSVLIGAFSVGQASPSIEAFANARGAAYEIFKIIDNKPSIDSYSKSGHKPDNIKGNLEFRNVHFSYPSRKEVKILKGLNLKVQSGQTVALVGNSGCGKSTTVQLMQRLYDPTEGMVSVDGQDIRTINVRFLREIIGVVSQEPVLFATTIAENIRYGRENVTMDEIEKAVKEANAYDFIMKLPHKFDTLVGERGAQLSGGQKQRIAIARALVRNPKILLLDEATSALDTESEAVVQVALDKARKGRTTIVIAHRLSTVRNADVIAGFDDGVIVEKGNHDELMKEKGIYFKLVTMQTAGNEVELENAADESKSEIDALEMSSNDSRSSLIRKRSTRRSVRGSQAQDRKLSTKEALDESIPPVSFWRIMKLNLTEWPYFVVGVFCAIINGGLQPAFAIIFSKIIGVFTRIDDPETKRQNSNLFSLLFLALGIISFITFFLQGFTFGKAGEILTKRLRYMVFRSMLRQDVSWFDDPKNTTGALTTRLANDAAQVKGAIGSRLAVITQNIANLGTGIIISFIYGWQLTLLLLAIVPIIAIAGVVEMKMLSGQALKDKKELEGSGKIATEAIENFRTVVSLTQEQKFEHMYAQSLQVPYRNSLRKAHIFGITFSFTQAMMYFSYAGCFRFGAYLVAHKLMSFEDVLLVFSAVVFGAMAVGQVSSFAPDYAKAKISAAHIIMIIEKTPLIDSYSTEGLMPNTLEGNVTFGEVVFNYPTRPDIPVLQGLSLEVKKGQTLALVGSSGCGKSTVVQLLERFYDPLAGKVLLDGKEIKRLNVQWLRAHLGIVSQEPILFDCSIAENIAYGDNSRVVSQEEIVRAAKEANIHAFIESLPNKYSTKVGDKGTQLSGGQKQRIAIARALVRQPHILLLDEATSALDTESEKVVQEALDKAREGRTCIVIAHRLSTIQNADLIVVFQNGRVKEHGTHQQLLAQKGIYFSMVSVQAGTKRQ
Method: FIG. 4. Estimation of IC50 of maribavir on P-gp efflux of digoxin (as determined by the corrected efflux ratio) in cultured Caco-2 cells. IC50, half maximal inhibitory concentration; P-gp, P-glycoprotein.
Drug-drug interaction potential of maribavir with cytochrome P450 enzymes and P-glycoprotein (P-gp) was thoroughly characterized. The reversible inhibition, time-dependent inhibition, and induction of CYPs were evaluated in the presence of maribavir using human cells or human-derived cell lines. The inhibition of P-gp was also assessed.

[1] = PBPK simulation of maribavir with rifampicin; parameters: species or system human
Method: A comparison of observed and predicted plasma concentrations of maribavir following multiple oral doses of 400 mg administered in the absence of rifampicin and during concurrent treatment with rifampicin was performed. Subjects took maribavir 400 mg BID on Days 1-3 (5 doses), then rifampicin 600 mg QD on Days 4 through 12, followed by both maribavir 400 mg (BID) and rifampicin 600 mg QD on Days 13 and 14, with final doses of maribavir and rifampicin on the morning of Day 15. […]

CYP3A = CYP3A (Homo sapiens, UniProt P08684); experiment: Time-dependent inhibition of CYP3A in HLM (IC50 shift and enzyme inactivation kinetics); type: in vitro ADME; parameters: from tissue; host or cells: human liver microsomes; conditions: human liver microsomes; for kinact: read-out: kinact (maximum enzyme inactivation rate constant), TDI of CYP3A (converted)
CYP3A, sequence (P08684 2-503): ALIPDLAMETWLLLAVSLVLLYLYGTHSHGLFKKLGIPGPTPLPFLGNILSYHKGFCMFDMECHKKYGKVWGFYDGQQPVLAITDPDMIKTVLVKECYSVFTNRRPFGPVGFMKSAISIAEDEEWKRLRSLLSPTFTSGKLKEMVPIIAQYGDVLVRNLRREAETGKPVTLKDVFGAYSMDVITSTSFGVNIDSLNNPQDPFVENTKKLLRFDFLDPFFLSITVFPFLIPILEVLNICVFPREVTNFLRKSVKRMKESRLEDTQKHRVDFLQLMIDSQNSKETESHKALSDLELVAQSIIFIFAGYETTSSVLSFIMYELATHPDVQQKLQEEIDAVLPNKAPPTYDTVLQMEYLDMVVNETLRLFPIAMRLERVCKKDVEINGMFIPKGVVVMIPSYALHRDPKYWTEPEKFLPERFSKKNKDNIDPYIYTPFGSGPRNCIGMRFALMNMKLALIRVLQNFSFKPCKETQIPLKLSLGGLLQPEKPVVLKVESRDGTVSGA
Method: Time-dependent inhibition (TDI) potentials for various CYP enzymes were evaluated by a 30 minute pre-incubation of maribavir with HLM in the presence and absence of nicotinamide-adenine dinucleotide […] (NADPH) followed by a CYP enzyme activity assay.
Enzyme inactivation kinetics of maribavir for the TDI of CYP3A, with midazolam and testosterone as probe substrates, was evaluated by pre-incubation of HLM with maribavir at various concentrations with NADPH for six different pre-incubation time frames. CYP3A activity was measured by determining the formation of CYP3A probe metabolite. Inhibitor concentration at half maximal enzyme inactivation (KI), and maximum enzyme inactivation rate constant (kinact), were estimated using non-linear least-square regression.

[2] = maribavir 400 mg BID + rifampicin 600 mg QD
[3] = maribavir 400 mg BID with/without rifampicin 600 mg QD

CC(C)Nc1nc2cc(Cl)c(Cl)cc2n1[C@H]1O[C@@H](CO)[C@H](O)[C@@H]1O [maribavir, (2S,3S,4R,5S)-2-(5,6-dichloro-2-(isopropylamino)-1H-benzo[d]imidazol-1-yl)-5-(hydroxymethyl)tetrahydrofuran-3,4-diol]
fold increase in CYP3A4 mRNA induction (CYP3A4 mRNA; 36 μM maribavir, human hepatocytes): greater than 14 fold
EC50 at 72 h (CYP3A4 mRNA; human): > 5 µM
CYP3A4 mRNA induction, % of positive control (rifampicin) levels (CYP3A4 mRNA; human, hepatocytes, 72 h, 36 μM): greater than 30%
pIC50 (P-gp): 4.47
AUC(0-12 h), RATIO GEOMETRIC MEAN PREDICTED/OBSERVED [1, 2]: 0.88
AUC(0-12 h), RATIO MEAN PREDICTED/OBSERVED [1, 2]: 1.00
C12 h, RATIO GEOMETRIC MEAN PREDICTED/OBSERVED [1, 2]: 0.22
C12 h, RATIO MEAN PREDICTED/OBSERVED [1, 2]: 0.83
Cmax, RATIO GEOMETRIC MEAN PREDICTED/OBSERVED [1, 2]: 0.75
Cmax, RATIO MEAN PREDICTED/OBSERVED [1, 2]: 0.78
Ratio AUC(0-12 h), RATIO GEOMETRIC MEAN PREDICTED/OBSERVED [1, 3]: 0.85
Ratio AUC(0-12 h), RATIO MEAN PREDICTED/OBSERVED [1, 3]: 0.91
Ratio C12 h, RATIO GEOMETRIC MEAN PREDICTED/OBSERVED [1, 3]: 0.24
Ratio C12 h, RATIO MEAN PREDICTED/OBSERVED [1, 3]: 0.56
Ratio Cmax, RATIO GEOMETRIC MEAN PREDICTED/OBSERVED [1, 3]: 0.89
Ratio Cmax, RATIO MEAN PREDICTED/OBSERVED [1, 3]: 0.87
KI (inactivation) (CYP3A; probe midazolam): 41.2 µM
kinact (CYP3A; probe midazolam, midazolam as substrate): 0.000195 s⁻¹
KI (inactivation) (CYP3A; probe testosterone): 167 µM
kinact (CYP3A; probe testosterone, testosterone as substrate): 0.000595 s⁻¹
